We go through 27 compounds from patent publication US20160158200A1, “Combinations of Hepatitis C Virus Inhibitors” (priority 2013, published 2016).

This test has as its system HCV genotype-1a variant with glutamine 30 changed to glutamate in the NS5A protein. It is filed as cell-based. The conditions noted are these: test compound titrated with BMS-790052 fixed at 200 nM; genotype 1a Q30E replicon. In outline:
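Synergy was assessed by combining several fixed amounts of an NS5A-targeting compound with a titration of the second compound of interest.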
(Replicon systems follow genome replication, usually without infectious particles.)

Regarding `CC(C)(C)[C@H](NC(=O)CS(C)(=O)=O)c1nc(-c2ccc(-c3ccc(-c4cnc([C@@H](NC(=O)CS(C)(=O)=O)C(C)(C)C)[nH]4)cc3)cc2)c[nH]1` [Compound B-181], the “Fold-Synergistic 1a (Q30E)” value is >10 fold.

`CC(C)(C)[C@H](NC(=O)C1(NC(=O)C(F)(F)F)CCCCC1)c1nc(-c2ccc(-c3ccc(-c4c[nH]c([C@@H](NC(=O)C5(NC(=O)C(F)(F)F)CCCCC5)C(C)(C)C)n4)cc3)cc2)c[nH]1.O=C(O)C(F)(F)F.O=C(O)C(F)(F)F` [Compound W-269]: the “Fold-Synergistic 1a (Q30E)” value is recorded as >100 fold. On to `CC1(C(=O)N[C@H](c2nc(-c3ccc(-c4ccc(-c5c[nH]c([C@@H](NC(=O)C6(C)CCCCC6O)C(C)(C)C)n5)cc4)cc3)c[nH]2)C(C)(C)C)CCCCC1O` (single isomer, unassigned) [Compound Y-94], for which the “Fold-Synergistic 1a (Q30E)” value is on record as >100 fold. On to `CCCCOC(=O)N[C@H](c1ncc(-c2ccc(-c3ccc(-c4cnc([C@@H](NC(=O)OCCCC)C(C)C)[nH]4)cc3)cc2)[nH]1)C(C)C` [Compound S-209], for which the “Fold-Synergistic 1a (Q30E)” value was >100 fold. For the compound `CC(C)C(NC(=O)C1CC1c1ccccc1)c1ncc(-c2ccc(-c3ccc(-c4cnc(C(NC(=O)C5CC5c5ccccc5)C(C)C)[nH]4)cc3)cc2)[nH]1` (stereo not drawn) [Compound S-21], the “Fold-Synergistic 1a (Q30E)” value was >100 fold. Take `CC(C)[C@H](NC(=O)c1cc(Cl)cs1)c1ncc(-c2ccc(-c3ccc(-c4cnc([C@@H](NC(=O)c5cc(Cl)cs5)C(C)C)[nH]4)cc3)cc2)[nH]1` [Compound P-90]: the “Fold-Synergistic 1a (Q30E)” value is >100 fold. As to `CC1(C(=O)NC(c2nc(-c3ccc(-c4ccc(-c5c[nH]c(C(NC(=O)C6(C)CCCCC6=O)C(C)(C)C)n5)cc4)cc3)c[nH]2)C(C)(C)C)CCCCC1=O` (mixture of isomers) [Compound Y-98], the “Fold-Synergistic 1a (Q30E)” value was >100 fold. Take `CC(C)[C@H](NC(=O)C(C)(C)C(O)C1CC(F)(F)C1)c1nc(-c2ccc(-c3ccc(-c4c[nH]c([C@@H](NC(=O)C(C)(C)C(O)C5CC(F)(F)C5)C(C)C)n4)cc3)cc2)c[nH]1` (single isomer, unassigned) [Compound N-145C]: the “Fold-Synergistic 1a (Q30E)” value is reported as >100 fold.

On to `CC(C)(C(=O)N[C@H](c1nc(-c2ccc(-c3ccc(-c4c[nH]c([C@@H](NC(=O)C(C)(C)C(O)C5CCC(F)(F)CC5)C(C)(C)C)n4)cc3)cc2)c[nH]1)C(C)(C)C)C(O)C1CCC(F)(F)CC1` (single isomer, unassigned) [Compound N-143C], for which the “Fold-Synergistic 1a (Q30E)” value was >100 fold.

Turning to `COC(C)(C)C(=O)N[C@H](c1nc(-c2ccc(-c3ccc(-c4c[nH]c([C@@H](NC(=O)C(C)(C)OC)C(C)(C)C)n4)c(C)c3)cc2)c[nH]1)C(C)(C)C.O=C(O)C(F)(F)F` [Compound N-85], the “Fold-Synergistic 1a (Q30E)” value was >100 fold.

Consider `CC(C)(C)C(=O)N[C@H]1CCC[C@H]1c1nc(-c2ccc(-c3ccc(-c4c[nH]c([C@@H]5CCC[C@@H]5NC(=O)C(C)(C)C)n4)cc3)cc2)c[nH]1` [Compound L-107], for which the “Fold-Synergistic 1a (Q30E)” value was >100 fold. In the case of `O=C(OC1CCCC1)N1CCC[C@H]1c1ncc(-c2ccc(-c3ccc(-c4cnc([C@@H]5CCCN5C(=O)OC5CCCC5)[nH]4)cc3)cc2)[nH]1` [Compound S-225], the “Fold-Synergistic 1a (Q30E)” value is given as >10 fold. `CC(C)(C)OC(=O)N1CC2(CC(C(=O)NC(c3nc(-c4ccc(-c5ccc(-c6c[nH]c(C(NC(=O)C7CC8(C7)CN(C(=O)OC(C)(C)C)C8)C(C)(C)C)n6)cc5)cc4)c[nH]3)C(C)(C)C)C2)C1` [Compound L-57]: the “Fold-Synergistic 1a (Q30E)” value is >100 fold. As to `CC(C)[C@H](NC(=O)C1CCC(F)(F)CC1)c1ncc(-c2ccc3c(c2)Cc2cc(-c4cnc([C@@H](NC(=O)C5CCC(F)(F)CC5)C(C)C)[nH]4)ccc2-3)[nH]1.O=C(O)C(F)(F)F` [Compound N-70], the “Fold-Synergistic 1a (Q30E)” value is reported as >100 fold. Then `O=C(C1CC1)N1CCC[C@H]1c1ncc(-c2ccc(-c3ccc(-c4cnc([C@@H]5CCCN5C(=O)C5CC5)[nH]4)cc3)cc2)[nH]1` [Compound S-109], with <10 fold; and `CC(C)(C(=O)N[C@H](c1nc(-c2ccc(-c3ccc(-c4c[nH]c([C@@H](NC(=O)C(C)(C)C(O)c5ccccn5)C(C)(C)C)n4)cc3)cc2)c[nH]1)C(C)(C)C)C(O)c1ccccn1` (single isomer, unassigned) [Compound N-128A], with >100 fold; and `CC(C)[C@H](NC(=O)C(=O)C1(CO)CCC(F)(F)CC1)c1ncc(-c2ccc(-c3ccc(-c4cnc([C@@H](NC(=O)C(=O)C5(CO)CCC(F)(F)CC5)C(C)C)[nH]4)cc3)cc2)[nH]1` [Compound P-128], with >100 fold. For `CCNC(=O)NC1(C(=O)N[C@H](c2nc(-c3ccc(-c4ccc(-c5c[nH]c([C@@H](NC(=O)C6(NC(=O)NCC)CCCCC6)C(C)(C)C)n5)cc4)cc3)c[nH]2)C(C)(C)C)CCCCC1` [Compound W-251], the “Fold-Synergistic 1a (Q30E)” value is recorded as >100 fold.

For the compound `CC(C)(C)C(NC(=O)C1(CO)CCCOC1)c1nc(-c2ccc(-c3ccc(-c4c[nH]c(C(NC(=O)C5(CO)CCCOC5)C(C)(C)C)n4)cc3)cc2)c[nH]1` (mixture of isomers) [Compound Y-101], the “Fold-Synergistic 1a (Q30E)” value was >100 fold. `CC(C)(C)[C@H](NC(=O)C(C)(C)n1cnc(C(F)(F)F)c1)c1nc(-c2ccc(-c3ccc(-c4c[nH]c([C@@H](NC(=O)C(C)(C)n5cnc(C(F)(F)F)c5)C(C)(C)C)n4)cc3)cc2)c[nH]1` [Compound W-150]: the “Fold-Synergistic 1a (Q30E)” value is recorded as >100 fold. Regarding `COC1(C(=O)C(=O)N[C@H](c2ncc(-c3ccc(-c4ccc(-c5cnc([C@@H](NC(=O)C(=O)C6(OC)CCC6)C(C)C)[nH]5)cc4)cc3)[nH]2)C(C)C)CCC1` [Compound P-116], the “Fold-Synergistic 1a (Q30E)” value is recorded as >100 fold. Take `CC1(C(=O)NC(c2nc(-c3ccc(-c4ccc(-c5c[nH]c(C(NC(=O)C6(C)CCCO6)C(C)(C)C)n5)cc4)cc3)c[nH]2)C(C)(C)C)CCCO1.O=C(O)C(F)(F)F.O=C(O)C(F)(F)F` (mixture of isomers) [Compound L-69]: the “Fold-Synergistic 1a (Q30E)” value is >100 fold. Take `CCNC(=O)C(=O)N[C@H](c1nc(-c2ccc(-c3ccc(-c4c[nH]c([C@@H](NC(=O)C(=O)OC(C)(C)C)C(C)(C)C)n4)cc3)cc2)c[nH]1)C(C)(C)C` [Compound W-43B]: the “Fold-Synergistic 1a (Q30E)” value is >100 fold. Consider `CC(C)[C@H](NC(=O)[C@@]1(C)CCC(F)(F)CO1)c1nc(-c2ccc(-c3ccc(-c4c[nH]c([C@@H](NC(=O)[C@@]5(C)CCC(F)(F)CO5)C(C)C)n4)cc3F)cc2)c[nH]1` [Compound N-133], for which the “Fold-Synergistic 1a (Q30E)” value is recorded as >100 fold. Regarding `CCCCOC(=O)N1CCC[C@H]1c1ncc(-c2ccc(-c3ccc(-c4cnc([C@@H]5CCCN5C(=O)OCCCC)[nH]4)cc3)cc2)[nH]1` [Compound S-219], the “Fold-Synergistic 1a (Q30E)” value was >10 fold. `CC(=O)N1C[C@H](F)C[C@H]1C(=O)N[C@H](c1nc(-c2ccc(-c3ccc(-c4c[nH]c([C@@H](NC(=O)[C@@H]5C[C@@H](F)CN5C(C)=O)C(C)(C)C)n4)cc3)cc2)c[nH]1)C(C)(C)C` [Compound W-102]: the “Fold-Synergistic 1a (Q30E)” value is >10 fold.

`CC1(C(=O)N[C@H](c2nc(-c3ccc(-c4ccc(-c5c[nH]c([C@@H](NC(=O)C6(C)CCCCC6O)C(C)(C)C)n5)cc4)cc3)c[nH]2)C(C)(C)C)CCCCC1O` (single isomer, unassigned) [Compound Y-104]: the “Fold-Synergistic 1a (Q30E)” value was >100 fold.
